# From ChEMBL document CHEMBL3217463, “Design, synthesis and biological evaluation of -lactam hydroxamate based TACE inhibitors” (Medchemcomm, 2011)
# Key:
# [1] = target: T1, Disintegrin and metalloproteinase domain-containing protein 17 (Homo sapiens, UniProt P78536); test: Ratio of IC50 for human catalytic domain of TACE to IC50 for MMP3 (unknown origin)
# [2] = Half life in Wistar rat at 5 mg/kg, iv; type: ADME, organism-based; parameters: dose 5 mg/kg, route intravenous; settings: in vivo
# [3] = Oral bioavailability in Wistar rat at 5 mg/kg; type: ADME, organism-based; settings: in vivo
# [4] = target: T2, Disintegrin and metalloproteinase domain-containing protein 10 (Homo sapiens, UniProt O14672); test: Inhibition of ADAM10 (unknown origin) using fluorescent substrate by fluorescence-based FRET assay
# T2 sequence (O14672 whole entry): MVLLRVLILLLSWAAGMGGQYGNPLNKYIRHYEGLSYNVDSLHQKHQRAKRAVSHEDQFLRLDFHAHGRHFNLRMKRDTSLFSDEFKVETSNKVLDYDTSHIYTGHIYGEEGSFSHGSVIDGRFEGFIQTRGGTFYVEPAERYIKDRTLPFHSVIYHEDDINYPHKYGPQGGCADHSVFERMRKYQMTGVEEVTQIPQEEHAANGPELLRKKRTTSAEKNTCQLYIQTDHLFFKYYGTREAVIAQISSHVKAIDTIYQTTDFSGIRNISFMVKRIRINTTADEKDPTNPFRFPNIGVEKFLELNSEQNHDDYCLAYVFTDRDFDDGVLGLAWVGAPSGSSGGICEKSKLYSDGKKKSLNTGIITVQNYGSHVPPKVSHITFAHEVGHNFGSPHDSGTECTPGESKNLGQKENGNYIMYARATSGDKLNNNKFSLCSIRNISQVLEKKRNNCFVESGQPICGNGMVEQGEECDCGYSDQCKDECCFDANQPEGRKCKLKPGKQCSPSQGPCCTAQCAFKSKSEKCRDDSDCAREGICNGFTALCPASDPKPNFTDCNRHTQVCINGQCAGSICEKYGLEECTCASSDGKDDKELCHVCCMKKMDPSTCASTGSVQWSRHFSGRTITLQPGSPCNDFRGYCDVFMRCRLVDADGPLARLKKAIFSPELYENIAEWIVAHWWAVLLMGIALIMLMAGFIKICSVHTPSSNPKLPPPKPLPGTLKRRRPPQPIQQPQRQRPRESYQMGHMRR
# [5] = target: T1, Disintegrin and metalloproteinase domain-containing protein 17; test: Ratio of IC50 for human catalytic domain of TACE to IC50 for MMP14 (unknown origin)
# [6] = target: T1, Disintegrin and metalloproteinase domain-containing protein 17; test: Inhibition of human catalytic domain of TACE assessed as inhibit the cleavage of the substrate by fluorescence-based FRET assay
# [7] = target: T1, Disintegrin and metalloproteinase domain-containing protein 17; test: Ratio of IC50 for human catalytic domain of TACE to IC50 for MMP1 (unknown origin)
# [8] = target: T1, Disintegrin and metalloproteinase domain-containing protein 17; test: Ratio of IC50 for human catalytic domain of TACE to IC50 for MMP9 (unknown origin)
# [9] = target: T1, Disintegrin and metalloproteinase domain-containing protein 17; test: Ratio of IC50 for human catalytic domain of TACE to IC50 for ADAM10 (unknown origin)
# Stromelysin-1 = Stromelysin-1 (Homo sapiens, UniProt P08254); test: Inhibition of MMP3 (unknown origin) by fluorescence-based FRET assay
# Chain of Stromelysin-1 (P08254 whole entry): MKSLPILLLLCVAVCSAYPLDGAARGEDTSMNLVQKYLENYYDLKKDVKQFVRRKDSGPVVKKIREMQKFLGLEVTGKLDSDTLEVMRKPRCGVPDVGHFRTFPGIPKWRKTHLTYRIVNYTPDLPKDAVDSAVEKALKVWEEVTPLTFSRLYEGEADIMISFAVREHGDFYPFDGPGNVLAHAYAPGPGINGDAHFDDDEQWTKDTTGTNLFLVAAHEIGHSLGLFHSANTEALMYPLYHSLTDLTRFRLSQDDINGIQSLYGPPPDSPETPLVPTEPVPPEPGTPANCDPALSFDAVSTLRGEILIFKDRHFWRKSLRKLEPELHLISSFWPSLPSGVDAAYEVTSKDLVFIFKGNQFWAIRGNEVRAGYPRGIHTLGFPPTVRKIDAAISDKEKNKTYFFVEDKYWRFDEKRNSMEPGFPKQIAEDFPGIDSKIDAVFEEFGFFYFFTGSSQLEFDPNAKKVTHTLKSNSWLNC
# [10] = target: Matrix metalloproteinase-14 (Homo sapiens, UniProt P50281); test: Inhibition of MMP14 (unknown origin) by fluorescence-based FRET assay
# [11] = Tmax in Wistar rat at 5 mg/kg, po; type: ADME, organism-based; parameters: dose 5 mg/kg, route oral; settings: in vivo
# Rattus norvegicus [12] = test: Toxicity in Wistar rat assessed as relative spleen weight at 100 mg/kg, po bid for 28 days (reference value: 0.201+/- 0.007 %); type: organism-based; parameters: dose 100 mg/kg, route oral; settings: in vivo, 672 h
# Rattus norvegicus [13] = test: Toxicity in Wistar rat assessed as WBC count at 100 mg/kg, po bid for 28 days (reference value: 8.20 +/- 0.33 10^3/ul); type: organism-based; parameters: dose 100 mg/kg, route oral; settings: in vivo, 672 h
# [14] = target: T1, Disintegrin and metalloproteinase domain-containing protein 17; test: Ratio of IC50 for human catalytic domain of TACE to IC50 for MMP8 (unknown origin)
# [15] = AUC in Wistar rat at 5 mg/kg, iv; type: ADME, organism-based; parameters: dose 5 mg/kg, route intravenous; settings: plasma
# Rattus norvegicus [16] = test: Toxicity in Wistar rat assessed as relative brain weight at 100 mg/kg, po bid for 28 days (reference value: 0.727+/- 0.024 %); type: organism-based; parameters: dose 100 mg/kg, route oral; settings: in vivo, 672 h
# [17] = target: T1, Disintegrin and metalloproteinase domain-containing protein 17; test: Ratio of IC50 for human catalytic domain of TACE to IC50 for MMP7 (unknown origin)
# Rattus norvegicus [18] = test: Toxicity in Wistar rat assessed as relative heart weight at 100 mg/kg, po bid for 28 days (reference value: 0.345 +/- 0.007 %); type: organism-based; parameters: dose 100 mg/kg, route oral; settings: in vivo, 672 h
# Rattus norvegicus [19] = test: Toxicity in Wistar rat assessed as survival at 100 mg/kg, po bid for 28 days; type: organism-based; parameters: dose 100 mg/kg, route oral; settings: in vivo, 672 h
# [20] = target: 72 kDa type IV collagenase (Homo sapiens, UniProt P08253); test: Inhibition of MMP2 (unknown origin) by fluorescence-based FRET assay
# Chain of 72 kDa type IV collagenase (P08253 whole entry): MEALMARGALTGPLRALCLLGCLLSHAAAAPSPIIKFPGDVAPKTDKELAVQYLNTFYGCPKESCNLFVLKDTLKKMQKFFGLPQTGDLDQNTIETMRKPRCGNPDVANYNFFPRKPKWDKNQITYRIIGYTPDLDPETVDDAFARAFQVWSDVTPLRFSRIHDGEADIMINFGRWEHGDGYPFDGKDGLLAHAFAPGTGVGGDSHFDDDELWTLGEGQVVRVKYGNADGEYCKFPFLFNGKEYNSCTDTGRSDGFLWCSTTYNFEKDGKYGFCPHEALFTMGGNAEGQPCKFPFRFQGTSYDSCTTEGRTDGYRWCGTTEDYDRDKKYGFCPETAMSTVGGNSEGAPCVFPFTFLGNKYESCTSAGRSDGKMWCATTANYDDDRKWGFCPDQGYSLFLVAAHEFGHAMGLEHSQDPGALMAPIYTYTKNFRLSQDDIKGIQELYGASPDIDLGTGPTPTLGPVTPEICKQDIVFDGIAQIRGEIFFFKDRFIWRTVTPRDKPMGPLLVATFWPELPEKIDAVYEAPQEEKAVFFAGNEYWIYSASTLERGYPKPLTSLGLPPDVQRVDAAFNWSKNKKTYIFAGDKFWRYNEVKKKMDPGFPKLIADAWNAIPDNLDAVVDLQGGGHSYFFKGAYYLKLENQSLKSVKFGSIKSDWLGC
# Rattus norvegicus [21] = test: Toxicity in Wistar rat assessed as RBC count at 100 mg/kg, po bid for 28 days (reference value: 7.38 +/- 0.11 10^6/ul); type: organism-based; parameters: dose 100 mg/kg, route oral; settings: in vivo, 672 h
# Rattus norvegicus [22] = test: Toxicity in Wistar rat assessed as body weight at 100 mg/kg, po bid for 28 days; type: organism-based; parameters: dose 100 mg/kg, route oral; settings: in vivo, 672 h
# Rattus norvegicus [23] = test: Toxicity in Wistar rat assessed as relative liver weight at 100 mg/kg, po bid for 28 days (reference value: 3.659 +/- 0.1 %); type: organism-based; parameters: dose 100 mg/kg, route oral; settings: in vivo, 672 h
# Rattus norvegicus [24] = test: Toxicity in Wistar rat assessed as adverse changes at 100 mg/kg, po bid for 28 days; type: organism-based; parameters: dose 100 mg/kg, route oral; settings: in vivo, 672 h
# Rattus norvegicus [25] = test: Toxicity in Wistar rat assessed as aspartate aminotransferase at 100 mg/kg, po bid for 28 days (reference value: 147.16 +/- 11.75 U/L); type: organism-based; parameters: dose 100 mg/kg, route oral; settings: in vivo, 672 h
# [26] = Elimination rate constant in Wistar rat at 5 mg/kg, iv; type: ADME, organism-based; parameters: dose 5 mg/kg, route intravenous; settings: in vivo
# [27] = target: T1, Disintegrin and metalloproteinase domain-containing protein 17; test: Ratio of IC50 for human catalytic domain of TACE to IC50 for MMP2 (unknown origin)
# Interstitial collagenase = target: T3, Interstitial collagenase (Homo sapiens, UniProt P03956); test: Inhibition of MMP1 (unknown origin) by fluorescence-based FRET assay
# T3 sequence (P03956 whole entry): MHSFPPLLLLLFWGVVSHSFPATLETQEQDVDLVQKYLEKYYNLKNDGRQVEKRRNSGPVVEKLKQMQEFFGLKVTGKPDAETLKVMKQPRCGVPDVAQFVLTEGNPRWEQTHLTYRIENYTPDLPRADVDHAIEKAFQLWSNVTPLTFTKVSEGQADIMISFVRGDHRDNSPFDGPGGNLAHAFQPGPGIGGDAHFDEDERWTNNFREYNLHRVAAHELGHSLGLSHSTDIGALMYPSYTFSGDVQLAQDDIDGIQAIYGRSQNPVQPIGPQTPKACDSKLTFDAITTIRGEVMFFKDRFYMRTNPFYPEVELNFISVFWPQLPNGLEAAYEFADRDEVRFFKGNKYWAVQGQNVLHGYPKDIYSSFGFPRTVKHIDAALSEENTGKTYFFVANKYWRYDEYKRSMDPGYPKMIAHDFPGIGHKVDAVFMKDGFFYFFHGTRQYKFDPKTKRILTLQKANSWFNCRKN
# Mus musculus = test: Antiinflammatory activity in po dosed Swiss Albino mouse assessed as inhibition of LPS-induced TNFalpha secretion in blood treated 0.5 hrs before LPS and measured after 1 hr of LPS stimulus by ELISA; type: functional
# T1 sequence (P78536 whole entry, the tested form may be a part): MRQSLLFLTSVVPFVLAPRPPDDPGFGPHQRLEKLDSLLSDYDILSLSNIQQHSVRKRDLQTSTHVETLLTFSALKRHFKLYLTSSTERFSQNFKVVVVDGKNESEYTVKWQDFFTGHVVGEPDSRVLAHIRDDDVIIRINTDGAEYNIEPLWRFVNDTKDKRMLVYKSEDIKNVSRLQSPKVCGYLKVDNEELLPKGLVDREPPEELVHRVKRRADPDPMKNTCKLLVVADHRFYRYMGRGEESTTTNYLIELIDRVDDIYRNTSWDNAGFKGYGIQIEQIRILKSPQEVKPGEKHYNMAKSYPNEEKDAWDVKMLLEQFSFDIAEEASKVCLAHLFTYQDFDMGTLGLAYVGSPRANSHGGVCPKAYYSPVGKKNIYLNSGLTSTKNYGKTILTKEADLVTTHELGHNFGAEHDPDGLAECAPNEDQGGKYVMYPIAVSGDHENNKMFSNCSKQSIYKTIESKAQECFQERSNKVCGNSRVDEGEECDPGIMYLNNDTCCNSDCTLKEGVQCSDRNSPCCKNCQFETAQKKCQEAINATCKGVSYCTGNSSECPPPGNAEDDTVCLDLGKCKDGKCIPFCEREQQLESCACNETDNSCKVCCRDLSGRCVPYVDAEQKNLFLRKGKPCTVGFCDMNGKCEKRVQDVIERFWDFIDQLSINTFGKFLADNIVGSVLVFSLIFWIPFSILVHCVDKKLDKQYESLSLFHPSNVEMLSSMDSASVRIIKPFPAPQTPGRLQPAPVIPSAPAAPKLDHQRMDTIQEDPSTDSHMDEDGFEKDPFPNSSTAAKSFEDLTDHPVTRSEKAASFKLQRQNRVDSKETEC
smiles,measurement,setting,value
COCCc1cc(COc2ccc([C@]3(N)CCN([C@H](CC(C)C)C(=O)NO)C3=O)cc2)c2ccccc2n1,Ratio IC50,[1],> 500
same,half-life,[2],65.4 min
same,bioavailability,[3],59.7%
same,IC50,[4],1.2 µM
same,Ratio IC50,[5],> 500
same,IC50,[6],0.0023 µM
same,Ratio IC50,[7],> 500
same,Ratio IC50,[8],> 500
same,Ratio IC50,[9],> 500
same,IC50,Stromelysin-1,1.02 µM
same,IC50,[10],1.08 µM
same,Tmax,[11],19.8 min
same,Activity,Rattus norvegicus [12],0.203%
same,Activity,Rattus norvegicus [13],8.41 ×10³ /uL
same,Ratio IC50,[14],> 500
same,AUC,[15],19700 ng·h/mL
same,Activity,Rattus norvegicus [16],0.703%
same,Ratio IC50,[17],> 500
same,Activity,Rattus norvegicus [18],0.358%
same,Activity,Rattus norvegicus [19],Non-toxic
same,IC50,[20],1.09 µM
same,Activity,Rattus norvegicus [21],8.01 ×10⁶ /uL
same,Activity,Rattus norvegicus [22],Non-toxic
same,Activity,Rattus norvegicus [23],3.801%
same,Activity,Rattus norvegicus [24],Non-toxic
same,Activity,Rattus norvegicus [25],140.2 U/L
same,k el,[26],0.000283 s⁻¹
same,Ratio IC50,[27],> 500
same,IC50,Interstitial collagenase,1.06 µM
same,ED50,Mus musculus,3.1 mg/kg
